Experimental findings from patent US10058534B2, “Benzothiophene derivatives and compositions thereof as selective estrogen receptor degraders” (NOVARTIS AG, priority 2013, dated 2018) are described below.

As usually defined, the pIC50 is the negative decadic logarithm of the IC50, by convention in mol/L. High values mean a small IC50, low ones a large IC50.

The experiment deals with ERα (Homo sapiens (Human), UniProt P03372). Briefly: ERα degradation (MCF7 cells), in-cell Western. As to conditions: MCF7 cells; for pIC50: inflection point of the degradation in response to ligand concentration; for % ERα remaining: remaining ERα protein at 10 μM ligand, relative to DMSO control. It counts as cell-based. As for the experimental part: ERα Degradation (MCF7 Cells)
ERα, sequence (P03372 whole entry): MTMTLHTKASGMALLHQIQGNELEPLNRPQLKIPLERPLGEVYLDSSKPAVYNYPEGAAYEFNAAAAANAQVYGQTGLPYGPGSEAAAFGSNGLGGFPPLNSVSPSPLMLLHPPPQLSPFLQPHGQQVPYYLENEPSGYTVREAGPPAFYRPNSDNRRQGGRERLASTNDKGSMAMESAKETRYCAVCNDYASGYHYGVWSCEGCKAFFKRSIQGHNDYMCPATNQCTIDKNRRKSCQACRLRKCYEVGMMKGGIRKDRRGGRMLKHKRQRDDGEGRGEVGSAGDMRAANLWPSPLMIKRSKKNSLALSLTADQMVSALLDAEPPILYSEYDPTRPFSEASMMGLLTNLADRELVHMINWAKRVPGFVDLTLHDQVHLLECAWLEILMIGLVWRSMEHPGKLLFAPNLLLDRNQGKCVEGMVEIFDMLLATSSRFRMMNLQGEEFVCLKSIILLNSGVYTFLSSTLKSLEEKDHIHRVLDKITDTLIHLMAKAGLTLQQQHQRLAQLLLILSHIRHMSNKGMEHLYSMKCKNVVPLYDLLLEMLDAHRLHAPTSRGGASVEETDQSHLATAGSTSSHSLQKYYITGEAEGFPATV
The column titled MCF7 IC50 reports the inflection point of the inhibition of transcription in MCF7 cells as described above. Percentage ERα remaining reports the remaining ERα protein measured at 10 μM concentration of the ligand as described above. The column ERα IC50 reports the inflection point of the degradation in response to the ligand concentration.

pIC50: −log10 of the molar value.

Consider `O=C(O)CCc1ccc(Oc2c(-c3ccc(O)cc3)sc3cc(O)ccc23)cc1` [Example 1, 3-(4-((6-hydroxy-2-(4-hydroxyphenyl)-benzo[b]thiophen-3-yl)oxy)phenyl)propanoic acid], for which the pIC50 is 7.51 and the “% ERα remaining” value was 58%.

Take `O=C(O)/C=C/c1ccc(Oc2c(-c3ccc(C(F)(F)F)cc3)sc3cc(O)ccc23)cc1` [Example 3, (E)-3-(4-((6-hydroxy-2-(4-(trifluoromethyl)phenyl)benzo[b]thiophen-3-yl)oxy)phenyl)acrylic acid]: the pIC50 was 7.47 and the “% ERα remaining” value was 18%.

For the molecule `CC(C)c1ccccc1-c1sc2cc(O)ccc2c1Oc1ccc(/C=C/C(=O)O)cc1` [Example 4, (E)-3-(4-((6-hydroxy-2-(2-isopropylphenyl)benzo[b]thiophen-3-yl)oxy)phenyl)acrylic acid], the negative logarithm of the IC50 (pIC50) is 9.40 and the “% ERα remaining” value was 13%.

Take `Cc1ccccc1-c1sc2cc(O)ccc2c1Oc1ccc(/C=C/C(=O)O)cc1` [Example 5, (E)-3-(4-((6-hydroxy-2-(o-tolyl)benzo-[b]thiophen-3-yl)oxy)-phenyl)acrylic acid]: the pIC50 was 8.40 and the “% ERα remaining” value stood at 20%.

In the case of `O=C(O)/C=C/c1ccc(Oc2c(-c3ccc(Cl)cc3)sc3cc(O)ccc23)cc1` [Example 6, (E)-3-(4-((2-(4-chlorophenyl)-6-hydroxybenzo[b]thiophen-3-yl)oxy)phenyl)-acrylic acid], the “% ERα remaining” value is reported as 21%.

On to `O=C(O)/C=C/c1ccc(Oc2c(-c3cccc(F)c3)sc3cc(O)ccc23)cc1` [Example 7, (E)-3-(4-((2-(3-fluorophenyl)-6-hydroxybenzo[b]thiophen-3-yl)oxy)phenyl)-acrylic acid], for which the “% ERα remaining” value amounted to 22%.

For the molecule `O=C(O)/C=C/c1ccc(Oc2c(-c3ccccc3C(F)(F)F)sc3cc(O)ccc23)cc1` [Example 8, (E)-3-(4-((6-hydroxy-2-(2-(trifluoromethyl)-phenyl)benzo[b]thiophen-3-yl)oxy)phenyl)-acrylic acid], the pIC50 is 9.00 and the “% ERα remaining” value is recorded as 17%.

`O=C(O)/C=C/c1ccc(Oc2c(-c3ccccc3Cl)sc3cc(O)ccc23)cc1` [Example 9, (E)-3-(4-((2-(2-chlorophenyl)-6-hydroxybenzo[b]thiophen-3-yl)oxy)phenyl)-acrylic acid]: the pIC50 is 8.22 and the “% ERα remaining” value stood at 18%.

As to `Cc1cc(C(F)(F)F)ccc1-c1sc2cc(O)ccc2c1Oc1ccc(/C=C/C(=O)O)cc1` [Example 10, (E)-3-(4-((6-hydroxy-2-(2-methyl-4-(trifluoromethyl)phenyl)benzo[b]thiophen-3-yl)oxy)phenyl)acrylic acid], the pIC50 was 8.30 and the “% ERα remaining” value was determined as 17%.

Take `O=C(O)/C=C/c1ccc(Oc2c(-c3ccc(C(F)(F)F)cc3C(F)(F)F)sc3cc(O)ccc23)cc1` [Example 11, (E)-3-(4-((2-(2,4-bis(trifluoromethyl)phenyl)-6-hydroxy-benzo[b]thiophen-3-yl)oxy)phenyl)-acrylic acid]: the pIC50 was 9.00 and the “% ERα remaining” value amounted to 15%.

Turning to `Cc1cccc(-c2sc3cc(O)ccc3c2Oc2ccc(/C=C/C(=O)O)cc2)c1C` [Example 13, (E)-3-(4-((2-(2,3-dimethylphenyl)-6-hydroxybenzo[b]thiophen-3-yl)oxy)phenyl)-acrylic acid], the pIC50 was 8.70 and the “% ERα remaining” value was 14%.

On to `Cc1ccc(C)c(-c2sc3cc(O)ccc3c2Oc2ccc(/C=C/C(=O)O)cc2)c1` [Example 14, (E)-3-(4-((2-(2,5-dimethylphenyl)-6-hydroxybenzo[b]thiophen-3-yl)oxy)phenyl)-acrylic acid], for which the pIC50 is 8.22 and the “% ERα remaining” value came out at 15%.

Consider `Cc1noc(C)c1-c1sc2cc(O)ccc2c1Oc1ccc(/C=C/C(=O)O)cc1` [Example 15, (E)-3-(4-((2-(3,5-dimethylisoxazol-4-yl)-6-hydroxybenzo-[b]thiophen-3-yl)oxy)-phenyl)acrylic acid], for which the pIC50 is 7.92 and the “% ERα remaining” value came out at 20%.
